MIC data for three molecules are collected here from DBAASP.

Converted amounts (≈) assume the structure as drawn.

Test systems include Enterococcus faecium; Candida albicans; Escherichia coli U7103; Escherichia coli U7794; Escherichia coli; Staphylococcus aureus.
What all share (test): ≥ marks a high value that may be exact or a test limit, other limits are often not marked, values filed in µg/mL are converted to µM
The subject of experiment [1] is Acinetobacter baumannii 4-MRGN.
The test system of experiment [2] is Pseudomonas aeruginosa ATCC 27853.
The subject of experiment [3] is Staphylococcus aureus USA 300.
Experiment [4] relates to Candida albicans ATCC 90028.
The subject of experiment [5] is Enterobacter cloacae NHTCC 53001.
Experiment [6] relates to Enterococcus faecalis ATCC 29212.
For experiment [7], the system named is Escherichia coli 0112 EIEC26.
The subject of experiment [8] is Escherichia coli 0112 EIEC27.
Experiment [9] deals with Escherichia coli 0143 EIEC7.
For experiment [10], the system named is Escherichia coli 0152 EIEC1.
Experiment [11] concerns Escherichia coli 0164 EIEC6.
For experiment [12], the system named is Escherichia coli ATCC 25922.
Experiment [13] concerns Escherichia coli ATCC 35218.
The test system of experiment [14] is Escherichia coli AX-054-1-3.
Experiment [15] has as its system Escherichia coli AX-100-3-1.
Experiment [16] deals with Escherichia coli AX-109-2-3.
Experiment [17] concerns Escherichia coli AX-128-3-3.
Experiment [18] relates to Escherichia coli O157:H7 282.
For experiment [19], the system named is Escherichia coli O157:H7 30328.
Experiment [20] concerns Escherichia coli O157:H7 734/94.
For experiment [21], the system named is Escherichia coli O157:H7 CB6392.
Experiment [22] concerns Escherichia coli O26:H- CB6418.
Experiment [23] deals with Escherichia coli O26:H11 3.
Experiment [24] concerns Escherichia coli O6:K15:H31 536.
For experiment [25], the system named is Klebsiella pneumoniae KK3 9904.
Experiment [26] deals with Proteus mirabilis ATCC 25933.
In experiment [27] the test system is Staphylococcus aureus NCTC 8325.
The subject of experiment [28] is Staphylococcus epidermidis RP62A.
The subject of experiment [29] is Acinetobacter baumannii MTCC 9829.
For experiment [30], the system named is Alcaligenes faecalis MTCC 1937.
The subject of experiment [31] is Alkalihalobacillus alcalophilus MTCC 860.
Experiment [32] relates to Bordetella bronchiseptica MTCC 6837.
Experiment [33] has as its system Citrobacter freundii MTCC 1658.
In experiment [34] the test system is Citrobacter koseri MTCC 1657.
Experiment [35] deals with Corynebacterium glutamicum MTCC 2679.
Experiment [36] concerns Enterococcus faecalis MTCC 439.
Experiment [37] has as its system Escherichia coli K12 MG1655.
In experiment [38] the test system is Haemophilus influenzae MTCC 621.
Experiment [39] deals with Klebsiella aerogenes MTCC 111.
The test system of experiment [40] is Klebsiella oxytoca MTCC 2275.
The test system of experiment [41] is Klebsiella pneumoniae MTCC 7407.
For experiment [42], the system named is Pluralibacter gergoviae MTCC 3826.
The subject of experiment [43] is Proteus mirabilis MTCC 3158.
The test system of experiment [44] is Proteus vulgaris MTCC 1771.
The subject of experiment [45] is Pseudomonas aeruginosa MTCC 3542.
Experiment [46] concerns Salmonella enterica MTCC 9844.
Experiment [47] has as its system Salmonella enterica subsp. enterica serovar Typhimurium ATCC 14028.
Experiment [48] has as its system Shigella boydii MTCC 11947.
The subject of experiment [49] is Shigella flexneri MTCC 1457.
For experiment [50], the system named is Staphylococcus aureus MTCC 3160.
The test system of experiment [51] is Staphylococcus haemolyticus MTCC 3383.
Experiment [52] relates to Stenotrophomonas maltophilia MTCC 1890.
For experiment [53], the system named is Vibrio cholerae MTCC 3904.

In the case of `C[C@H](N)C(=O)N[C@H](C(=O)N[C@H]1CSSC[C@@H](C(=O)N[C@@H](CCCN=C(N)N)C(=O)N[C@H](C(=O)NCC(=O)N[C@@H](CCCN=C(N)N)C(=O)O)[C@@H](C)O)NC(=O)[C@H](Cc2ccc(O)cc2)NC1=O)[C@@H](C)O` [ATCYCRTGR], the MIC in [1] was 25 µM (≈ 25.7 µg/mL); against Enterococcus faecium, 25 µM (≈ 25.7 µg/mL); in experiment [2] it was 50 µM (≈ 51.4 µg/mL); in [3], at least 50 µM.

Take `CC[C@@H](C)[C@H](N=C(O)[C@H](CCCCN)N=C(O)C(CS)N=C(O)C(C)N=C(O)[C@H](N=C(O)[C@@H](Cc1ccccc1)N=C(O)CN=C(O)[C@H](CC(C)C)N=C(O)CN=C(O)[C@H](N=C(O)[C@H](CCCCN)N=C(O)CN=C(O)[C@H](CC(C)C)N=C(O)[C@H](CC(=N)O)N=C(O)[C@H](CCCCN)N=C(O)[C@H](CC(C)C)N=C(O)[C@H](N=C(O)[C@H](CO)N=C(O)C(CC(C)C)N=C(O)[C@H](CCSC)N=C(O)[C@H](N)CO)C(C)C)C(C)C)C(C)C)C(O)=N[C@H](CC(=N)O)C(O)=N[C@H](CCCCN)C(O)=N[C@H](CCC(=N)O)C(O)=N[C@H](CS)C(=O)O` (stereo not given in full) [SMLSVLKNLGKVGLGFVACKINKQC]: the MIC is at least 40 µM in experiment [4]; 70 µM (≈ 186 µg/mL) in the experiment with Candida albicans; 20 µM (≈ 53 µg/mL) in experiment [5]; 20 µM (≈ 53 µg/mL) in experiment [6]; at least 40 µM in [7]; 20 µM (≈ 53 µg/mL) in experiment [8]. Further, the MIC in [9], in experiment [10], in experiment [11], in [12], in [13] and in [14] was 20 µM (≈ 53 µg/mL) each time. In addition, the MIC is 20 µM (≈ 53 µg/mL) in [15]; 10 µM (≈ 26.5 µg/mL) in experiment [16]; 10 µM (≈ 26.5 µg/mL) in experiment [17]; 5 µM (≈ 13.3 µg/mL) in experiment [18]; 10 µM (≈ 26.5 µg/mL) in experiment [19]; 10 µM (≈ 26.5 µg/mL) in [20]. Further, the MIC in experiment [21] is 10 µM (≈ 26.5 µg/mL); in [22] it was 10 µM (≈ 26.5 µg/mL); in experiment [23], 5 µM (≈ 13.3 µg/mL); in experiment [24], 5 µM (≈ 13.3 µg/mL); in the experiment with Escherichia coli U7103, 5 µM (≈ 13.3 µg/mL); against Escherichia coli U7794, 10 µM (≈ 26.5 µg/mL). Further, the MIC was 2 µM (≈ 5.3 µg/mL) in the experiment on Escherichia coli; at least 40 µM in experiment [25]; at least 100 µM in experiment [26]; 20 µM (≈ 53 µg/mL) in experiment [2]; 20 µM (≈ 53 µg/mL) in [27]; 50 µM (≈ 133 µg/mL) against Staphylococcus aureus. The MIC in [28] stood at 20 µM (≈ 53 µg/mL).

As to `CC[C@H](C)[C@H](NC(=O)[C@H](C)NC(=O)[C@H](CCCN=C(N)N)NC(=O)[C@H](C)NC(=O)[C@H](CC(C)C)NC(=O)[C@@H](N)Cc1ccc(O)cc1)C(=O)N[C@@H](CCCN=C(N)N)C(=O)N[C@@H](CCCN=C(N)N)C(=O)N[C@H](C(=O)N[C@@H](CC(C)C)C(=O)N[C@@H](C)C(=O)N[C@@H](CCCN=C(N)N)C(=O)N[C@@H](CC(C)C)C(=O)N[C@@H](CC(C)C)C(=O)N[C@@H](CC(C)C)C(=O)O)[C@@H](C)O` [YLARAIRRTLARLLL], the MIC stood at 8.89 µM (≈ 16 µg/mL) in experiment [29]; 17.8 µM (≈ 32 µg/mL) in experiment [30]; 8.89 µM (≈ 16 µg/mL) in [31]; 2.22 µM (≈ 4 µg/mL) in [32]; 8.89 µM (≈ 16 µg/mL) in experiment [33]; 8.89 µM (≈ 16 µg/mL) in [34]. For the same molecule, the MIC in experiment [35] was 2.22 µM (≈ 4 µg/mL); in [36], at least 35.6 µM; in experiment [37], 17.8 µM (≈ 32 µg/mL); in experiment [38], 4.45 µM (≈ 8 µg/mL); in [39], 17.8 µM (≈ 32 µg/mL); in [40], 8.89 µM (≈ 16 µg/mL). In addition, the MIC in experiment [41] is 17.8 µM (≈ 32 µg/mL); in experiment [42], at least 71.1 µM; in experiment [43] it was at least 71.1 µM; in experiment [44], at least 71.1 µM; in experiment [45], at least 71.1 µM; in experiment [46], 8.89 µM (≈ 16 µg/mL). The MIC in experiment [47] turned out to be 17.8 µM (≈ 32 µg/mL); in [48], 17.8 µM (≈ 32 µg/mL); in experiment [49], 4.45 µM (≈ 8 µg/mL); in experiment [50] it was 8.89 µM (≈ 16 µg/mL); in [51], 8.89 µM (≈ 16 µg/mL); in experiment [52], 8.89 µM (≈ 16 µg/mL). This molecule registered an MIC in experiment [53] of at least 35.6 µM.
